From patent US11185531B2, “Arginine methyltransferase inhibitors and uses thereof” (Epizyme, Inc., priority 2013, dated 2021) come the findings set out here.

For assay [1], the target named is T1, human PRMT1 (Homo sapiens, UniProt Q99873).
T1 construct: GST-tagged PRMT1; made in house; host or cells: High Five insect cells (baculovirus)
Kind of assay: PRMT1 Biochemical Assay (3H-SAM Flashplate, peptide substrate). The conditions noted are these: 30 min preincubation. From the text: Peptide representative of human histone H4 residues 36-50 was synthesized with an N-terminal linker-affinity tag motif and a C-terminal amide cap by 21st Century Biochemicals. The peptide was purified by high-performance liquid chromatography (HPLC) to greater than 95% purity and confirmed by liquid chromatography mass spectrometry (LC-MS). The sequence was Biot-Ahx-[…]-amide (SEQ ID NO.: 1).
Full-length human PRMT1 isoform 1 (NM_001536.5) transcript clone was amplified from an HEK 293 cDNA library, incorporating flanking 5′ sequence encoding a FLAG tag ([…]) (SEQ ID NO:2) fused directly to Met 1 of PRMT1. The amplified gene was subcloned into pFastBacI (Life Technologies) modified to encode an N-terminal GST tag and a TEV cleavage sequence
GST-tagged PRMT1 was eluted with 50 mM Tris, 2 mM glutathione, pH 7.8, dialysed in buffer A and concentrated to 1 mg/mL. The purity of recovered protein was 73%. Reference: Wasilko, D. J. and S. E. Lee: “TIPS: titerless infected-cells preservation and scale-up” Bioprocess J., 5 (2006), pp. 29-32.
General Procedure for PRMT1 Enzyme Assays on Peptide Substrates.
The assays were all performed in a buffer consisting of 20 mM Bicine (pH=7.6), 1 mM TCEP, 0.005% BSG, and 0.002% Tween 20, prepared on the day of use. Compounds in 100% DMSO (1 ul) were spotted into a polypropylene 384-well V-bottom plates (Greiner) using a Platemate Plus outfitted with a 384-channel head (Thermo Scientific). DMSO (1 ul) was added to Columns 11, 12, 23, 24, rows A-H for the maximum signal control and 1 ul of SAH, a known product and inhibitor of PRMT1, was added to columns 11, 12, 23, 24, rows I-P for the minimum signal control. A cocktail (40 ul) containing the PRMT1 enzyme was added by Multidrop Combi (Thermo-Fisher). The compounds were allowed to incubate with PRMT1 for 30 min at room temperature, then a cocktail (10 ul) containing SAM and peptide was added to initiate the reaction (final volume=51 ul). The final concentrations of the components were as follows: PRMT1 was 0.5 nM, ^3H-SAM was 200 nM, non-radiolabeled SAM was 1.5 uM, peptide was 20 nM, SAH in the minimum signal control wells was 1 mM, and the DMSO concentration was 2%. The assays were stopped by the addition of non-radiolabeled SAM (10 ul) to a final concentration of 300 uM, which dilutes the ^3H-SAM to a level where its incorporation into the peptide substrate is no longer detectable. 50 ul of the reaction in the 384-well polypropylene plate was then transferred to a 384-well Flashplate and the biotinylated peptides were allowed to bind to the streptavidin surface for at least 1 hour before being washed once with 0.1% Tween20 in a Biotek ELx405 plate washer. The plates were then read in a PerkinElmer TopCount plate reader to measure the quantity of ^3H-labeled peptide bound to the Flashplate surface, measured as disintegrations per minute (dpm) or alternatively, referred to as counts per minute (cpm).
(§1) Where dpm=disintegrations per minute, cmpd=signal in assay well, and min and max are the respective minimum and maximum signal controls.
(§2) Where top and bottom are the normally allowed to float, but may be fixed at 100 or 0 respectively in a 3-parameter fit. The Hill Coefficient normally allowed to float but may also be fixed at 1 in a 3-parameter fit. Y is the % inhibition and X is the compound concentration.

Assay [2] addresses T2, human PRMT6 (Homo sapiens, UniProt Q96LA8).
T2 construct: Flag-PRMT6-His was eluted with 200 ug/ml FLAG peptide in the same buffer; made in house; host or cells: HEK 293F cells (BacMam baculovirus, pFastBacMam)
The assay is described as follows: PRMT6 Biochemical Assay (3H-SAM Flashplate, peptide substrate). The conditions noted are these: 30 min preincubation.
Text: Peptide representative of human histone H4 residues 36-50 was synthesized with an N-terminal linker-affinity tag motif and a C-terminal amide cap by 21st Century Biochemicals. The peptide was purified by high-performance liquid chromatography (HPLC) to greater than 95% purity and confirmed by liquid chromatography mass spectrometry (LC-MS). The sequence was Biot-Ahx-[…]-amide and contained a monomethylated lysine at position 44 (SEQ ID NO:5).
Full-length human PRMT6 (NM_018137.2) transcript clone was amplified from an HEK 293 cDNA library, incorporating a flanking 5′ sequence encoding a FLAG tag ([…]) (SEQ ID NO:6) fused directly to Ser 2 of PRMT6 and a 3′ sequence encoding a hexa His sequence (HHHHHH) fused directly to Asp 375. The amplified gene was subcloned into pFastBacMam (Viva Biotech).
Column was washed with 20 mM imidazole in the same buffer and Flag-PRMT6-His was eluted with 150 mM imidazole. Pooled fractions were dialysed against buffer Ni-A and further purified by anti-flag M2 affinity chromatography. Flag-PRMT6-His was eluted with 200 ug/ml FLAG peptide in the same buffer. Pooled fractions were dialysed in 20 mM Tris, 150 mM NaCl, 10% glycerol and 5 mM 3-mercaptoethanol, pH 7.8. The purity of recovered protein was 95%.
General Procedure for PRMT6 Enzyme Assays on Peptide Substrates.
The assays were all performed in a buffer consisting of 20 mM Bicine (pH=7.6), 1 mM TCEP, 0.005% BSG, and 0.002% Tween 20, prepared on the day of use. Compounds in 100% DMSO (1 ul) were spotted into a polypropylene 384-well V-bottom plates (Greiner) using a Platemate Plus outfitted with a 384-channel head (Thermo Scientific). DMSO (1 ul) was added to Columns 11, 12, 23, 24, rows A-H for the maximum signal control and 1 ul of SAH, a known product and inhibitor of PRMT6, was added to columns 11, 12, 23, 24, rows I-P for the minimum signal control. A cocktail (40 ul) containing the PRMT6 enzyme was added by Multidrop Combi (Thermo-Fisher). The compounds were allowed to incubate with PRMT6 for 30 min at room temperature, then a cocktail (10 ul) containing SAM and peptide was added to initiate the reaction (final volume=51 ul). The final concentrations of the components were as follows: PRMT6 was 1 nM, ^3H-SAM was 200 nM, non-radiolabeled SAM was 250 nM, peptide was 75 nM, SAH in the minimum signal control wells was 1 mM, and the DMSO concentration was 2%. The assays were stopped by the addition of non-radiolabeled SAM (10 ul) to a final concentration of 400 uM, which dilutes the ^3H-SAM to a level where its incorporation into the peptide substrate is no longer detectable. 50 ul of the reaction in the 384-well polypropylene plate was then transferred to a 384-well Flashplate and the biotinylated peptides were allowed to bind to the streptavidin surface for at least 1 hour before being washed once with 0.1% Tween20 in a Biotek ELx405 plate washer. The plates were then read in a PerkinElmer TopCount plate reader to measure the quantity of ^3H-labeled peptide bound to the Flashplate surface, measured as disintegrations per minute (dpm) or alternatively, referred to as counts per minute (cpm).
as §1, §2

Bounds are passed on as bounds.

T2 sequence (Q96LA8 with tags, fused parts or gaps): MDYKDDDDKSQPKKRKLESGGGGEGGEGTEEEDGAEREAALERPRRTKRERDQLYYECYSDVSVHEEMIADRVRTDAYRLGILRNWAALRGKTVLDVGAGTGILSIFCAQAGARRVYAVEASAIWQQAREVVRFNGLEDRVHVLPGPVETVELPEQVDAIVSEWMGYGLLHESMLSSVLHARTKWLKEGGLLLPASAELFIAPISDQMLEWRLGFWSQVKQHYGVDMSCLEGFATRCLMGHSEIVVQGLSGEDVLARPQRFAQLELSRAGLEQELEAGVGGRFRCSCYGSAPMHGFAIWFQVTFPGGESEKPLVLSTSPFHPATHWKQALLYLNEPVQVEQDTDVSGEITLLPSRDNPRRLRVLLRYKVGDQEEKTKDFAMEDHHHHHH
T1 sequence (Q99873 with tags, fused parts or gaps): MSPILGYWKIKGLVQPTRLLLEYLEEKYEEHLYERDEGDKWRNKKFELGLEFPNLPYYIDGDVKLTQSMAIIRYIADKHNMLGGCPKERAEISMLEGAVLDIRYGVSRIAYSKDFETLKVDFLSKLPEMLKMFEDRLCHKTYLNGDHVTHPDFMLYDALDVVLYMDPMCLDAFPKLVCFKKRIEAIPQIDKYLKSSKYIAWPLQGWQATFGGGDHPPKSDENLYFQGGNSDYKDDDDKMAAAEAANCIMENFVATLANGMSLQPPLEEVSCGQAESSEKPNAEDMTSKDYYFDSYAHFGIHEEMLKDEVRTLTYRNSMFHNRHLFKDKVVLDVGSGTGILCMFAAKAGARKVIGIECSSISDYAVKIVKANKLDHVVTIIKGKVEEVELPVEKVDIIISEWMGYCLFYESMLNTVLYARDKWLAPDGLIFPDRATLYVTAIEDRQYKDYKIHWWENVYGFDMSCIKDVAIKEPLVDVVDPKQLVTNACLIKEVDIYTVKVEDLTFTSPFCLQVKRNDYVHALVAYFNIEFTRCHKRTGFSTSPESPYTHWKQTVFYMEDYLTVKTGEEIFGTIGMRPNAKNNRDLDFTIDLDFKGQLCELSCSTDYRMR

Turning to `CN(CCN)Cc1c[nH]nc1C1CCC(C)(C)CC1` [Compound 38, N^1-((3-(4,4-dimethylcyclohexyl)-1H-pyrazol-4-yl)methyl)-N^1-methylethane-1,2-diamine], the half-inhibitory concentration (IC50) in assay [1] and in assay [2] was less than 100 nM in each case.

Turning to `CNCCN(C)Cc1c[nH]nc1C1CCN(C)CC1` [Compound 41], the IC50 in assay [1] and in assay [2] was less than 100 nM each time.

Consider `CNCCN(C)Cc1c[nH]nc1C1CCNCC1` [Compound 42], for which the IC50 in assay [1] and in assay [2] was less than 100 nM throughout.

In the case of `CN(CCN)Cc1n[nH]cc1C1CCC(N2CCOCC2)CC1` (centres unmarked) [Compound 44, N^1-methyl-N^1-((4-(4-morpholinocyclohexyl)-1H-pyrazol-3-yl)methyl)ethane-1,2-diamine], the IC50 (usually the point on the concentration scale where inhibition reaches its midpoint) in assay [1] was in the range of 1010 to 3000 nM; in assay [2], 101 to 1000 nM.
